# According to patent publication US20170037425A1, “METHOD FOR IMPROVING PLANT TRAIT” (SHANGHAI INSTITUTES FOR BIOLOGICAL SCIENCES, CHINESE …, priority 2012, published 2017):
# Key:
# Brassica [1] = experiment: Growth, biomass and yield of transgenic Brassica; assay type: in vivo, Brassica napus L.; settings: for fresh and dry weights vs WT and empty vector control: 4-week-old transgenic Brassica; for plant growth vs WT and empty vector control: 3 weeks
# From the text: FIG. 14. (A) WT, empty vector control (pHB) and mCherry transgenic Brassica (L1-L3) were germinated and grown for one week in the phytotron under white light (PPFD:250 μmol m^−2s^−1). Then the plants were moved and grown under white light, green light (PFD: 60 μmol m^−2s^−1) or red+blue light (red light PFD; 60 μmol m^−2s^−1, blue light PFD; 10 μmol m^−2s^−1) for another 3 weeks and photos were taken, (B) Comparison of the fresh weights and dry weights of WT and mCherry transgenic Brassica grown under white light, green light or red+blue light for four weeks. Values in the figures are means±SD, for WT, n=10, for transgenic plant transformed with empty vector control pHB and mCherry, data were the averages of three independent lines and 10 plants for each line. **p≦0.01. (C) Net photosynthetic rate of WT and mCherry transgenic Brassica measured under different light qualities. Nine-week-old WT and mCherry transgenic Brassica grown in the phytotron (PPFD: 250 μmol m^−2s^−1) were transferred and treated with different qualities of light for 4 days and net photosynthetic rate was measured. (D) Net photosynthetic rate of WT and mCherry transgenic Brassica grow in the natural field measured under different PPFD as light source. Net photosynthetic rate was measured in situ between 10:00 am and 12:00 pm. […] FIG. 15. (A) Measurement of the fresh weight and dry weight per plant of 7-week-old WT and mCherry transgenic Brassica plants grown in the natural field conditions. Values in the figures are means±SD, n=10. *p≦0.05, **p≦0.01. (B) Comparison of the plant size, silique size, seed size, grain yield per plant and 1000-seed weight at the harvesting time. Values in the figures are means±SD, n=10. *p≦0.05, **p≦0.01. Wild type (WT), transgenic Brassica with empty vector (pHB) and mCherry transgenic Brassica (L1-L3) were germinated in the phytotron under white light (light intensity: 250 μmol m^−2s^−1) for 1 week. Then the plants were transferred and continued to grow under white light, green light (light intensity: 60 μmol m^−2s^−1), red+blue light (intensity of red light: 60 μmol m^−2s^−1; intensity of blue light: 10 μmol m^−2s^−1). The […] were taken three weeks after transfer.
# [2] = tested on: Atp B, D1, Psa D, Lhcb1, Lhca1 and cyt f; experiment: Western blot of photosynthesis related proteins in transgenic Brassica leaves; assay type: in vivo, Brassica napus L.
# Brassica [3] = experiment: State transition of leaves and thylakoids of transgenic Brassica; assay type: in vivo, Brassica napus L.
# Procedure: State transition of leaves was measured using PAM-101/PDA100 fluorometer (Walz) as described in (L. Dietzel et al., The Plant Cell 23, 2964 (Aug. 1, 2011). PSII light with a PFD of 100 μmol m^−2s^−1 was provided by a Schott KL-1500 lamp (Walz). PSI light with a PFD of 6 μmol m^−2s^−1 was provided by PAM-101 (Walz). The half-time (t1/2) of state 1-state 2 transition was determined by calculate the decrease of the fluorescence after PSI light was switched off. The half-time for state 2-state 1 transition was determined following L. Dietzel et al., The Plant Cell 23, 2964 (Aug. 1, 2011). Thylakoids isolated from Brassica leaves were added into STN buffer supplemented with 10 mM ATP in a final concentration of 5-10 μg/ml. Half of thylakoids were illuminated and half of the thylakoids were treated in dark for 20-30 min in room temperature, respectively. Chlorophyll α fluorescence emission spectra were recorded at 77K (in liquid nitrogen) using F-4600 spectrofluorometer (Hitachi, Japan), The excitation wavelength was set at 435 nm. Data were the average of four measurements.
# Brassica [4] = experiment: Stomatal conductance and intercellular CO2 concentration of transgenic Brassica; assay type: in vivo, Brassica napus L.
# Procedure: Gas exchange was measured using photosynthetic infrared gas analysis system (LI-6400, Li-Cor Inc, Lincoln, Nebr., USA). The net photosynthetic rate (Pn) and stomatal conductance (Gs) was measured. Sunlight and artificial light were used as artificial light sources for measurement. The ambient CO2 during the measurements was controlled at 400 μmol mol^−1. The ambient temperature was controlled at the temperature for plant growth. Six leaves were measured for each line of plant.
# Brassica [5] = experiment: Redox metabolites (NAD+/NADH, NADP+/NADPH, GSSG/GSH, ASC/DHA) in transgenic Brassica leaves; assay type: in vivo, Brassica napus L.; settings: transgenic Brassica transferred from red+blue light to white light
# Procedure: Leaves were from the 4-week-old Brassica plants grown under white light or red+blue light, or 2 h after being switched from red+blue light to white light. Extraction of metabolites from leaves and measurement of NAD^+/NADH, NADP^+/NADPH, GSSG/GSH and ASC/DHA follows G. Queval, G. Noctor, Anal Biochem. 363, 58 (2007).
# Brassica [6] = experiment: Leaf absorption spectrum of transgenic Brassica; assay type: in vivo, Brassica napus L.; settings: different light intensities
# Procedure: Reflectance and transmittance of Brassica leaves under different light intensities were measured using fiber optic spectrometer with an integrating sphere (Ocean Optics, Britain). The absorbance of the leaves under different light intensities was calculated with the equation: absorbance=100%) (without leaf)−transmittance−reflectance.
# Brassica [7] = experiment: Soluble protein content of transgenic Brassica; assay type: in vivo, Brassica napus L.; settings: three lines
# Procedure: In this invention, three lines of mCherry transgenic Brassica were selected and the content of soluble protein was measured and compared with that in WT. The content of soluble protein in mCherry transgenic Brassica was increased.
# wheat = experiment: Phenotype of transgenic wheat; assay type: in vivo
# Procedure: Wheat transformation was performed with method described in Supartana P, Shimizu T, Nogawa M, Shioiri H, Nakajima T, Haramoto N, Nozue M, and Kojima M. Development of simple and efficient in Planta transformation method for wheat (Triticum aestivum L.) Using Agrobacterium tumefaciens, Journal of Bioscience and Bioengineering 102, 162-170.
# [8] = transgenic Brassica, young seedling stage
substance,measurement,setting,value
"mCherry: red fluorescent protein, amino acid sequence SEQ ID NO: 2",fresh and dry weights vs WT and empty vector control,Brassica [1]; red+blue light,no significant difference
same,fresh and dry weights vs WT and empty vector control,Brassica [1]; white or green light,significantly increased
same,"1000-seed weight, increase vs WT",Brassica [1]; transgenic Brassica,25%
same,"grain yield per plant, increase vs WT",Brassica [1]; transgenic Brassica,30 to 100%
same,1000-seed weight vs WT (in words),Brassica [1]; transgenic Brassica at harvest,increased
same,grain yield per plant vs WT (in words),Brassica [1]; transgenic Brassica at harvest,increased
same,seed size vs WT,Brassica [1]; transgenic Brassica at harvest,significantly increased
same,growth and biomass accumulation,"Brassica [1]; transgenic Brassica, natural field conditions",stimulated the growth and biomass accumulation
same,plant growth vs WT and empty vector control,"Brassica [1]; transgenic Brassica, red+blue light",No significant difference
same,plant growth vs WT and empty vector control,"Brassica [1]; transgenic Brassica, white light and green light",grew better than WT and empty vector control plants
same,"dry weight, increase vs WT",Brassica [1]; [8],78%
same,"fresh weight, increase vs WT",Brassica [1]; [8],66.7%
same,expression of photosynthesis related proteins vs WT,[2]; transgenic Brassica grown under red+blue light,no significant difference
same,expression of photosynthesis related proteins vs WT,[2]; transgenic Brassica grown under white light,significantly increased
same,state transition of thylakoid membrane,"Brassica [3]; transgenic Brassica grown under red+blue light, 77K fluorescence",no significant difference
same,percentage of state transition of thylakoid membrane,"Brassica [3]; transgenic Brassica grown under white light, 77K fluorescence",increased
same,t0.5 for state transition between St1 and St2,Brassica [3]; transgenic Brassica live leaf,significantly decreased
same,stomatal conductance (Gs) vs WT,Brassica [4]; transgenic Brassica,increased
same,intercellular CO2 concentration (Ci),Brassica [4]; transgenic Brassica leaves,did not lead to the decrease
same,"content of reduced metabolites or ratio of reduced to oxidized metabolites (NADH, NADPH, ascorbate, GSH)",Brassica [5],increased
same,light energy absorbed by leaves,Brassica [6],significantly increased
same,content of soluble protein vs WT,Brassica [7],increased
same,seed size and grain yield per plant vs WT,wheat,increase
same,seed size and panicle size vs WT,wheat,significantly increased
